Measurements reported in patent publication US20200255436A1, “CORTICOTROPIN RELEASING FACTOR RECEPTOR ANTAGONISTS” (Spruce Biosciences, Inc., priority 2019, published 2020).
Like-named read-outs stand apart in the source and are kept apart here.

Columns and labels:
Format in all cases: in vivo, human
[1] = Study 1: single escalating oral dose pharmacokinetics, fed and fasted; settings: for Cmax / Tmax / AUC(0-inf) / AUC(0-t) / Vd/F / half-life: human, plasma, po; for AUC(0-t): read-out: AUC0-tlast
Experimental: (§1) Study 1 was the first-in-human study that investigated the safety, tolerability, and PK of single-escalating doses of Compound 1, given orally, to healthy adult subjects. […] The data from this study were used for the selection of doses for Study 2.
In Study 1, Compound 1 was administered to healthy adult subjects as a single PO dose of 2, 10, 50, 150, 400, or 800 mg in the fed state and 150 mg in the fasted state. Absorption occurred moderately late, achieving peak Cmax between 4 to 6 hours following dosing in the fed state.
When Compound 1 was given in the fed state, median time to reach maximum plasma concentration (Tmax) occurred between 4 and 6 hours.
As part of this single-dose escalation study, a food effect PK investigation was performed to examine Compound 1 exposures in both the fed and fasted states at the 150-mg dose level. A total of 6 subjects were administered 150 mg Compound 1 in each of these 2 dosing groups. Of these 6 subjects, 4 subjects received Compound 1 at the same dose in both fed and fasted states. […] Table 2 provides a summary of the PK parameters at the 150-mg dose level under both fed and fasted state conditions.
PK parameters AUC0-∞ and Cmax were analyzed separately for dose proportionality for Compound 1 from 50 to 800 mg when administered in the fed state. […] Dose proportionality across administered doses in the fed state could not be concluded on the basis of AUC0-∞ or Cmax.

[2] = Study 2 Part A: multiple-dose (14 days) pharmacokinetics; settings: for AUC(0-t): read-out: AUC0-24h; for Tmax: median; for concentration at 14 day: read-out: Cavg; for half-life: po, half-life calculated by accumulation ratio, read-out: Effective t1/2 (converted)
Experimental: (§2) The 2-part multiple-dose study, Study 2, determined the safety and tolerability of repeated daily doses of Compound 1 and investigated the effects on biomarkers of relevance for the treatment of alcohol dependence.
PK were also evaluated in the multiple-dose, dose-escalation study, Study 2. In Part A of the study, subjects were divided into 3 cohorts and received 50, 150, or 200 mg Compound 1 or placebo for 14 consecutive days (at least 6 subjects received Compound 1 and 2 subjects received placebo in each cohort). […] All dosing occurred in the fed state. An assessment of diurnal cortisol levels, plus when under conditions of glucose clamp, were also carried out both prior to and during the dosing period.
Consistent with the single-dose study (Study 1), concentrations appeared to decline in a bi-exponential manner, characterized by a rapid decrease within the first 24 hours. […] The Tmax appeared to be consistent across doses. Overall half-lives, weight normalized CL/F and V/F were consistent for 150 and 200 mg. However, the values for these latter 2 parameters were almost doubled at the 50-mg dose level. Variability (CV%) for apparent clearance and volume of distribution were large and not reduced with weight-normalization.
Table 8 presents the results of the dose proportionality assessment for the AUC0-24 and Cmax over the tested dose range.

[3] = Phase 1 safety and tolerability (Study 1 and Study 2); settings: healthy subjects
Source text: as §1, §2
The safety of Compound 1 was evaluated in 2 Phase 1 studies in healthy adult volunteers (Study 1 and Study 2). In both studies, adverse events (AEs), clinical laboratory tests, vital signs (supine blood pressure and pulse rate), and electrocardiograms (ECGs) were evaluated. Overall, in Study 1, Compound 1 was well-tolerated.

[4] = 50 mg, 50 mg single oral dose, fed, geometric mean
[5] = 150 mg, 150 mg single oral dose, fasted, geometric mean
[6] = 150 mg, 150 mg single oral dose, fed, geometric mean
[7] = 400 mg, 400 mg single oral dose, fed, geometric mean
[8] = 800 mg, 800 mg single oral dose, fed, geometric mean
[9] = human, plasma, oral, 50 mg, 50 mg daily, Day 14, geometric mean
[10] = human, plasma, oral, 50 mg, Day 1, geometric mean
[11] = human, plasma, oral, 150 mg, 150 mg daily, Day 14, geometric mean
[12] = human, plasma, oral, 150 mg, Day 1, geometric mean
[13] = human, plasma, oral, 200 mg, 200 mg daily, Day 14, geometric mean
[14] = human, plasma, oral, 200 mg, Day 1, geometric mean
[15] = human, plasma, oral, 50 mg daily, Day 14, geometric mean
[16] = human, plasma, oral, 150 mg daily, Day 14, geometric mean
[17] = human, plasma, oral, 200 mg daily, Day 14, geometric mean

CCC(CC)c1cc(C)nc2c(-c3sc(N4CCOCC4)nc3Cl)c(C)nn12 [Compound 1, 4-(4-chloro-5-(2,5-dimethyl-7-(pentan-3-yl)pyrazolo[1,5-a]pyrimidin-3-yl)thiazol-2-yl)morpholine] showed a CL/F ([1]; 50 mg single oral dose, fed, geometric mean) of 302 L/h, a CL/F ([1]; 150 mg single oral dose, fasted, geometric mean) of 454 L/h and a CL/F ([1]; 150 mg single oral dose, fed, geometric mean) of 157 L/h. For the same compound, the CL/F ([1]; 400 mg single oral dose, fed, geometric mean) was 155 L/h, the CL/F ([1]; 800 mg single oral dose, fed, geometric mean) was 165 L/h and the “AUC0-∞ increase for every doubling of dose relative to dose proportionality” value ([1]; 50 to 800 mg, fed state) was 1.74 times. The “mean AUC0-∞, fed state relative to fasted state” value ([1]; 150-mg single dose) was “approximately 3 fold”, the “mean Cmax, fed state relative to fasted state” value ([1]; 150-mg single dose) was roughly 11 fold and the Cmax ([1]; 2 mg, 2 mg single oral dose, fed, geometric mean) was 0.867 ng/mL. The Tmax ([1]; 2 mg, 2 mg single oral dose, fed, median, read-out: Tmax) was 6 h, the Cmax ([1]; 10 mg, 10 mg single oral dose, fed, geometric mean) was 3.01 ng/mL and the Tmax ([1]; 10 mg, 10 mg single oral dose, fed, median, read-out: Tmax) was 4 h. It also gave an AUC(0-inf) [1, 4] of 165 ng·h/mL, a Cmax [1, 4] of 19.5 ng/mL and an AUC(0-t) [1, 4] of 152 ng·h/mL. For the same compound, the Vd/F ([1]; 50 mg, 50 mg single oral dose, fed, geometric mean, read-out: VSS/F) was 8080 L, the Vd/F ([1]; 50 mg, 50 mg single oral dose, fed, geometric mean, read-out: VZ/F) was 13500 L and the half-life ([1]; 50 mg, 50 mg single oral dose, fed, geometric mean, read-out: t1/2 (converted)) was 31 h. The Tmax ([1]; 50 mg, 50 mg single oral dose, fed, median, read-out: Tmax) was 4 h, the AUC(0-inf) [1, 5] was 331 ng·h/mL and the Cmax [1, 5] was 8.22 ng/mL. The AUC(0-t) [1, 5] was 288 ng·h/mL, the Vd/F ([1]; 150 mg, 150 mg single oral dose, fasted, geometric mean, read-out: VSS/F) was 25200 L and the Vd/F ([1]; 150 mg, 150 mg single oral dose, fasted, geometric mean, read-out: VZ/F) was 25100 L. The half-life ([1]; 150 mg, 150 mg single oral dose, fasted, geometric mean, read-out: t1/2 (converted)) was 38.4 h, the Tmax ([1]; 150 mg, 150 mg single oral dose, fasted, median, read-out: Tmax) was 10.1 h and the AUC(0-inf) [1, 6] was 956 ng·h/mL. For the same compound, the Cmax [1, 6] was 93.4 ng/mL, the AUC(0-t) [1, 6] was 891 ng·h/mL and the Vd/F ([1]; 150 mg, 150 mg single oral dose, fed, geometric mean, read-out: VSS/F) was 4600 L. It also gave a Vd/F ([1]; 150 mg, 150 mg single oral dose, fed, geometric mean, read-out: VZ/F) of 6620 L, a half-life ([1]; 150 mg, 150 mg single oral dose, fed, geometric mean, read-out: t1/2 (converted)) of 29.2 h and a Tmax ([1]; 150 mg, 150 mg single oral dose, fed, median, read-out: Tmax) of 4 h. For the same compound, the AUC(0-inf) [1, 7] was 2580 ng·h/mL, the Cmax [1, 7] was 207 ng/mL and the AUC(0-t) [1, 7] was 2300 ng·h/mL. It also gave a Vd/F ([1]; 400 mg, 400 mg single oral dose, fed, geometric mean, read-out: VSS/F) of 6580 L, a Vd/F ([1]; 400 mg, 400 mg single oral dose, fed, geometric mean, read-out: VZ/F) of 9890 L and a half-life ([1]; 400 mg, 400 mg single oral dose, fed, geometric mean, read-out: t1/2 (converted)) of 44.2 h. For the same compound, the Tmax ([1]; 400 mg, 400 mg single oral dose, fed, median, read-out: Tmax) was 4 h, the AUC(0-inf) [1, 8] was 4850 ng·h/mL and the Cmax [1, 8] was 382 ng/mL. The AUC(0-t) [1, 8] was 4390 ng·h/mL, the Vd/F ([1]; 800 mg, 800 mg single oral dose, fed, geometric mean, read-out: VSS/F) was 6820 L and the Vd/F ([1]; 800 mg, 800 mg single oral dose, fed, geometric mean, read-out: VZ/F) was 9970 L. For the same compound, the half-life ([1]; 800 mg, 800 mg single oral dose, fed, geometric mean, read-out: t1/2 (converted)) was 41.9 h, the Tmax ([1]; 800 mg, 800 mg single oral dose, fed, median, read-out: Tmax) was 6 h and the half-life ([1]; after a single PO dose (fed and fasted state), across dose levels, read-out: Mean half-life (t1/2)) was 31 to 44 h. For the same compound, the Tmax ([1]; single oral doses 2-800 mg, fed state, read-out: median time to reach maximum plasma concentration (Tmax)) was 4 to 6 h, the “RA (accumulation ratio, Day 14 AUC0-24/Day 1 AUC0-24)” value ([2]; 50 mg daily) was 2.80 and the CLaa/F ([2]; 50 mg daily, Day 14, geometric mean) was 183 L/h. The “WT-norm Claa/F” value ([2]; 50 mg daily, Day 14, weight normalized) was 48 mL/min/kg, the “RA (accumulation ratio, Day 14 AUC0-24/Day 1 AUC0-24)” value ([2]; 150 mg daily) was 2.51 and the CLaa/F ([2]; 150 mg daily, Day 14, geometric mean) was 101 L/h. The “WT-norm Claa/F” value ([2]; 150 mg daily, Day 14, weight normalized) was 23.7 mL/min/kg, the “RA (accumulation ratio, Day 14 AUC0-24/Day 1 AUC0-24)” value ([2]; 200 mg daily) was 3.65 and the CLaa/F ([2]; 200 mg daily, Day 14, geometric mean) was 98 L/h. The “WT-norm Claa/F” value ([2]; 200 mg daily, Day 14, weight normalized) was 25 mL/min/kg, the Cmax [2, 9] was 50.3 ng/mL and the AUC(0-t) [2, 9] was 273 ng·h/mL. The Vd/F at 14 days ([2]; human, plasma, oral, 50 mg, 50 mg daily, Day 14, geometric mean, read-out: Vss/F) was 12900 L, the Tmax ([2]; human, plasma, oral, 50 mg, 50 mg daily, Day 14) was 5 h and the Vd/F at 14 days ([2]; human, plasma, oral, 50 mg, 50 mg daily, Day 14, weight normalized, read-out: WT-norm Vss/F) was 204 L/kg. For the same compound, the Cmax [2, 10] was 22.7 ng/mL, the AUC(0-t) [2, 10] was 97.6 ng·h/mL and the Tmax ([2]; human, plasma, oral, 50 mg, Day 1) was 4.52 h. For the same compound, the Cmax [2, 11] was 222 ng/mL, the AUC(0-t) [2, 11] was 1480 ng·h/mL and the Vd/F at 14 days ([2]; human, plasma, oral, 150 mg, 150 mg daily, Day 14, geometric mean, read-out: Vss/F) was 6170 L. For the same compound, the Vd/F at 14 days ([2]; human, plasma, oral, 150 mg, 150 mg daily, Day 14, geometric mean, read-out: Vz/F) was 17600 L, the Tmax ([2]; human, plasma, oral, 150 mg, 150 mg daily, Day 14) was 5 h and the Vd/F at 14 days ([2]; human, plasma, oral, 150 mg, 150 mg daily, Day 14, weight normalized, read-out: WT-norm Vss/F) was 86.5 L/kg. The Cmax [2, 12] was 127 ng/mL, the AUC(0-t) [2, 12] was 590 ng·h/mL and the Tmax ([2]; human, plasma, oral, 150 mg, Day 1) was 5 h. It also gave a Cmax [2, 13] of 314 ng/mL, an AUC(0-t) [2, 13] of 2040 ng·h/mL and a Vd/F at 14 days ([2]; human, plasma, oral, 200 mg, 200 mg daily, Day 14, geometric mean, read-out: Vss/F) of 5080 L. For the same compound, the Vd/F at 14 days ([2]; human, plasma, oral, 200 mg, 200 mg daily, Day 14, geometric mean, read-out: Vz/F) was 16300 L, the Tmax ([2]; human, plasma, oral, 200 mg, 200 mg daily, Day 14) was 5 h and the Vd/F at 14 days ([2]; human, plasma, oral, 200 mg, 200 mg daily, Day 14, weight normalized, read-out: WT-norm Vss/F) was 77.4 L/kg. The Cmax [2, 14] was 143 ng/mL, the AUC(0-t) [2, 14] was 559 ng·h/mL and the Tmax ([2]; human, plasma, oral, 200 mg, Day 1) was 5 h. The AUC(0-inf) [2, 15] was 980 ng·h/mL, the concentration at 14 day [2, 15] was 11.4 ng/mL and the AUC(0-inf) [2, 16] was 4680 ng·h/mL. The concentration at 14 day [2, 16] was 61.7 ng/mL, the AUC(0-inf) [2, 17] was 5660 ng·h/mL and the concentration at 14 day [2, 17] was 85 ng/mL. For the same compound, the half-life at 2 weeks ([2]; human, plasma, oral, following multiple daily dosing for 2 weeks) was greater than 100 h, the half-life ([2]; human, plasma, 50 mg daily, Day 14) was 37.7 h and the half-life ([2]; human, plasma, 150 mg daily, Day 14) was 32.7 h. The half-life ([2]; human, plasma, 200 mg daily, Day 14) was 52 h, the tolerability ([3]; Study 1, single oral doses up to 800 mg) was “well-tolerated” and the tolerability ([3]; Study 2, multiple doses up to 200 mg) was “generally well tolerated”.
